Results reported in publication PMC6224480, “Insights into Kinesin-1 Activation from the Crystal Structure of KLC2 Bound to JIP3” (Structure(London, England:1993), 2018).
No end group written: not given here. *: point of attachment. FITC = O=C1OC2(c3ccc(O)cc3Oc3cc(O)ccc32)c2ccc(NC(=S)*)cc21

What was measured:
[1] = test system: KLC2^TPR-myc Tyr^208Ala (Y208A); assay: ITC of FITC-CSTN-WD2 peptide into Y208A KLC2^TPR-myc; format: binding, murine; settings: n = 2
Source text: (§1) The KLC2^TPR construct used in this work comprised murine KLC2 residues 191-480, which is similar to those used in previous studies ([Nguyen et al., 2017], [Zhu et al., 2012]) but with a slightly longer N-terminal region to include residues 191-194, which are very highly conserved in Bilaterian KLCs. To construct the pMW-His6-SUMO-KLC2^TPR vector, the sequence encoding KLC2^TPR (residues 191-480) was amplified by PCR from a murine template ([Dodding et al., 2011]) and cloned into the NotI/EcoRI sites of pMW his-SUMO. The His6-SUMO- KLC2^TPR-myc vectors were constructed likewise, but using a reverse primer sequence encoding the KLC^TPR C-terminal region up to residue 480, a BglII site, and an in-frame myc-tag sequence, thus fusing the amino acid sequence […] to the KLC2^TPR C-terminus. KLC2^TPR-myc mutants (Thr^200Asp, Tyr^208Ala, Gln^223Lys and Arg^312Glu) were generated by overlap PCR.
The Trp-JIP3^LZ protein used for CD and ITC experiments was prepared as described above for the JIP3^LZ, with the following modifications. Following 3C cleavage, contaminating GST3C was removed by incubation of the eluate with fresh, pre-equilibrated glutathione sepharose 4B resin for 2 hours at room temperature. The Trp-JIP3^LZ was then further purified by size exclusion chromatography using a Superdex 75 16/600 column equilibrated in 100 mM NaCl, 25 mM HEPES, 1 mM TCEP (final pH 7.5). […] The Trp-JIP3^LZ and KLC2^TPR-myc samples used in the fluorescence anisotropy-based binding competition assays were prepared as for those used in the CD and ITC studies, but the final size-exclusion step was performed in 100 mM NaCl, 25 mM HEPES, 5mM MgCl2, 1 mM TCEP (final pH 7.5).
(§2) To study binding of the Trp-JIP3^LZ and FITC-CSTN-WD2 peptide to wild-type and mutant KLC2^TPR-myc, the recombinant proteins were prepared by size exclusion chromatography in 0.1 M NaCl, 25 mM HEPES, 1 mM TCEP, final pH 7.5. […] The peptide concentration was determined by measuring the absorbance at 483 nm and using a molar extinction coefficient of 68,000 M^-1cm^-1. […] The resulting isotherms were analysed in SEDPHAT. Data for the Trp-JIP3^LZ as titrant were fitted with the A + B + B → AB + B → ABB model, whilst binding of the FITC-CSTN-WD2 peptide was analysed using the A + B → AB model. […] During fitting, the FITC-CSTN-WD2 peptide concentrations consistently refined to values around 30% greater than the measured value of 380 μM, with Napp values around 0.7 (Table S2). We ascribe this to an under-quantification of the FITC-CSTN-WD2 peptide concentration since the peptide contains a single tryptophan-acidic motif, and the concentration values for experiments with Trp-JIP3^LZ as ligand refined close to their measured values.

[2] = test system: KLC2^TPR-myc Thr^200Asp (T200D); assay: ITC of FITC-CSTN-WD2 peptide into T200D KLC2^TPR-myc; format: binding, murine; settings: 25°C, 0.1 M NaCl, n = 3
Source text: as §1
The Trp-JIP3^LZ protein used for CD and ITC experiments was prepared as described above for the JIP3^LZ, with the following modifications. […] The Trp-JIP3^LZ and KLC2^TPR-myc samples used in the fluorescence anisotropy-based binding competition assays were prepared as for those used in the CD and ITC studies, but the final size-exclusion step was performed in 100 mM NaCl, 25 mM HEPES, 5mM MgCl2, 1 mM TCEP (final pH 7.5).
as §2, with “We ascribe this to an under-quantification of the FITC-CSTN-WD2 peptide concentration since the peptide contains a single tryptophan-acidic motif, and the concentration values for experiments with Trp-JIP3^LZ as ligand refined close to their measured values.” left out

[3] = test system: wild-type and mutant KLC2^TPR-myc; assay: ITC with wild-type and/or TPR1-mutant KLC2^TPR-myc (collective statements); format: binding, murine
Protocol: (§3) The Trp-JIP3^LZ protein used for CD and ITC experiments was prepared as described above for the JIP3^LZ, with the following modifications. Following 3C cleavage, contaminating GST3C was removed by incubation of the eluate with fresh, pre-equilibrated glutathione sepharose 4B resin for 2 hours at room temperature. The Trp-JIP3^LZ was then further purified by size exclusion chromatography using a Superdex 75 16/600 column equilibrated in 100 mM NaCl, 25 mM HEPES, 1 mM TCEP (final pH 7.5). Wild-type/mutant KLC2^TPR-myc samples used for CD and ITC experiments were prepared as described above the KLC2^TPR used in crystallographic studies. The Trp-JIP3^LZ and KLC2^TPR-myc samples used in the fluorescence anisotropy-based binding competition assays were prepared as for those used in the CD and ITC studies, but the final size-exclusion step was performed in 100 mM NaCl, 25 mM HEPES, 5mM MgCl2, 1 mM TCEP (final pH 7.5).
To study binding of the Trp-JIP3^LZ and FITC-CSTN-WD2 peptide to wild-type and mutant KLC2^TPR-myc, the recombinant proteins were prepared by size exclusion chromatography in 0.1 M NaCl, 25 mM HEPES, 1 mM TCEP, final pH 7.5. […] The peptide concentration was determined by measuring the absorbance at 483 nm and using a molar extinction coefficient of 68,000 M^-1cm^-1. […] The resulting isotherms were analysed in SEDPHAT. […]

[4] = test system: wild-type KLC2^TPR-myc; assay: ITC of Trp-JIP3^LZ or FITC-CSTN-WD2 peptide into wild-type KLC2^TPR-myc; format: binding, murine; settings: n = 2
Protocol: as §3
To study binding of the Trp-JIP3^LZ and FITC-CSTN-WD2 peptide to wild-type and mutant KLC2^TPR-myc, the recombinant proteins were prepared by size exclusion chromatography in 0.1 M NaCl, 25 mM HEPES, 1 mM TCEP, final pH 7.5. Wild-type or mutant KLC2^TPR-myc at 44-50 μM were placed in the cell. The Trp-JIP3^LZ was used as the titrant at dimer concentrations of 297-330 μM. The FITC-CSTN-WD2 peptide was used as the titrant at a concentration of 380 μM. The peptide concentration was determined by measuring the absorbance at 483 nm and using a molar extinction coefficient of 68,000 M^-1cm^-1. ITC experiments were performed as described above with injections spaced 120-150 s apart. Thermograms were integrated and corrected for heats of dilution using NITPIC (http://biophysics.swmed.edu/MBR/software.html). The resulting isotherms were analysed in SEDPHAT. Data for the Trp-JIP3^LZ as titrant were fitted with the A + B + B → AB + B → ABB model, whilst binding of the FITC-CSTN-WD2 peptide was analysed using the A + B → AB model. Between 2 and 3 experiments were performed for each titrand/titrant pair. For each titrand/titrant pair, the isotherms from the experiments were globally fitted with the relevant model. […] During fitting, the FITC-CSTN-WD2 peptide concentrations consistently refined to values around 30% greater than the measured value of 380 μM, with Napp values around 0.7 (Table S2). We ascribe this to an under-quantification of the FITC-CSTN-WD2 peptide concentration since the peptide contains a single tryptophan-acidic motif, and the concentration values for experiments with Trp-JIP3^LZ as ligand refined close to their measured values.

[5] = test system: KLC2 L220Y mutant; assay: ITC of FITC-CSTN-WD2 peptide into L220Y KLC2^TPR-myc; format: binding, murine; settings: 25°C, 0.1 M NaCl, n = 2
Protocol: as §3
as §2, with “7.5. Wild-type or mutant KLC2^TPR-myc at 44-50 μM were placed in the cell. The Trp-JIP3^LZ was used as the titrant at dimer concentrations of 297-330 μM.” for “7.5.”

[6] = target: T1, KLC2^TPR-myc (Mus musculus, UniProt O88448); assay: Fluorescence anisotropy-based binding competition against FITC-LFP motif peptide; parameters: species or system murine; settings: FITC-LFP peptide 300 nM, KLC2^TPR-myc 21 μM, Trp-JIP3^LZ two independent experiments, CSTN-WD1 one experiment
T1 construct: comprised murine KLC2 residues 191-480; His6-SUMO (N, cleaved yes); made in house; host or cells: E. coli BL21(DE3) Rosetta
Source text: Kinesin-1 activation by JIP3 requires JIP3^LZ binding to KLC^TPR ([Watt et al., 2015]). How does JIP3^LZ binding to the KLC^TPR relieve KLC regulation of the kinesin-1 molecule? Tryptophan-acidic cargoes activate kinesin-1 by releasing the KLC LFP motif from the KLC^TPR ([Yip et al., 2016]). […] We therefore wondered whether JIP3^LZ binding to the KLC2^TPR allosterically regulates interactions between KLC2^TPR and the LFP motif. We investigated this using an in vitro, fluorescence anisotropy-based binding competition assay with purified proteins and peptides ([Yip et al., 2016]). […] Thus, JIP3 activates kinesin-1 by a different mechanism to tryptophan-acidic cargoes.
The binding affinity between the FITC-labelled LFP-motif peptide and the KLC2^TPR-myc was measured essentially as described previously ([Yip et al., 2016]). FITC-labelled LFP motif peptide (300 nM) was incubated with 2-fold dilutions of KLC2^TPR-myc in assay buffer (0.1 M NaCl, 25 mM HEPES, 5 mM MgCl2, 1 mM TCEP, final pH 7.5) in triplicate in 384-well plates, for 1 hour at room temperature. Fluorescence measurements were recorded on a TecanSpark plate reader at excitation and emission wavelengths of 488 nm and 535 nm respectively. Fluorescence anisotropy values were calculated at each KLC2^TPR-myc concentration and the data were fitted with a fixed-slope dose response curve in Prism (GraphPad). […]

[7] = 25°C, 0.1 M NaCl, pH 7.5, global fit
[8] = 25 mM HEPES, 1 mM TCEP, pH 7.5, A + B → AB model, global fit
[9] = FITC-CSTN-WD2, 25°C, 0.1 M NaCl, pH 7.5, global fit

T1 sequence (O88448 191-480): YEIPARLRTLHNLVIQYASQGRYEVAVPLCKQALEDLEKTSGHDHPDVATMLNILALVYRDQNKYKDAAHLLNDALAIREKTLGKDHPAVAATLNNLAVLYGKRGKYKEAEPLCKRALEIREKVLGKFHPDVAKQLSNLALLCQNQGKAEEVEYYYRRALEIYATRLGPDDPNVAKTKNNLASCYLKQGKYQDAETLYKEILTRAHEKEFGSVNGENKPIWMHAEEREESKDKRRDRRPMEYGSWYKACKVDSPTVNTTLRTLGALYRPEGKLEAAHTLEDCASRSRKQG

| Substance | K, macroscopic association constant ([1]; 25°C, 0.1 M NaCl, 25 mM HEPES, 1 mM TCEP, pH 7.5, A + B → AB model, global fit) | -TΔS [1, 7] | ΔH [1, 7] | Napp, apparent binding stoichiometry ([1]; mean ± standard deviation) | K, macroscopic association constant [2, 8] | -TΔS ([2]; pH 7.5, global fit) | ΔH ([2]; pH 7.5, global fit) | Napp values ([3]; FITC-CSTN-WD2, wild-type and mutant KLC2^TPR-myc, ascribed to under-quantification of the peptide concentration) | effect of the three TPR1 mutations on binding ([3]; all three mutations in TPR1 of KLC2^TPR-myc, ITC) | K, macroscopic association constant ([4]; FITC-CSTN-WD2, 25°C, 0.1 M NaCl, 25 mM HEPES, 1 mM TCEP, pH 7.5, A + B → AB model, global fit) | -TΔS [4, 9] | ΔH [4, 9] | Napp, apparent binding stoichiometry ([4]; FITC-CSTN-WD2, mean ± standard deviation) | K, macroscopic association constant [5, 8] | -TΔS ([5]; pH 7.5, global fit) | ΔH ([5]; pH 7.5, global fit) | effect on binding of KLC2^TPR-myc to FITC-labeled LFP motif peptide [6] |
| --- | --- | --- | --- | --- | --- | --- | --- | --- | --- | --- | --- | --- | --- | --- | --- | --- | --- |
| {FITC}-TRQLEWDDSTL-OH [FITC-CSTN-WD2, FITC-labeled tryptophan-acidic calsyntenin-1 peptide] | 0.541 µM⁻¹ | -4.463 kcal/mol | -3.358 kcal/mol | 0.67 ± 0.07 | 0.845 µM⁻¹ | -3.911 kcal/mol | -4.174 kcal/mol | around 0.7 | only minor effects on binding | 0.820 µM⁻¹ | -3.762 kcal/mol | -4.305 kcal/mol | 0.67 ± 0.08 | 0.739 µM⁻¹ | -4.104 kcal/mol | -3.902 kcal/mol | – |
| Ac-GKENEMDWDDSALTITVN [CSTN-WD1] | – | – | – | – | – | – | – | – | – | – | – | – | – | – | – | – | blocked binding |
